The record followed here is US20240391930A1, “SPIROCYCLIC BICYCLIC MODULATORS OF CHOLESTEROL BIOSYNTHESIS AND THEIR USE FOR PROMOTING REMYELINATION” (GENENTECH, INC., priority 2021, published 2024).

pKi: −log10 of the molar value.

One assay concerns the target T1, human EBP (Homo sapiens, UniProt Q15125).
T1 construct: expressed in transfected cells; host or cells: human embryonic kidney 293 cells
The experiment in a line: hEBP SPA competition binding assay ([3H]-Ifenprodil). As to the method:
Membrane preparation: To examine compound binding affinity to EBP, human EBP was overexpressed in human embryonic kidney 293 cells. Cell pellet was lysed in 10 times weight binding buffer (50 mM Tris, 5 mM MgCl2, 0.1 mM EDTA, lx protease inhibitor cocktail, pH 7.5) on ice by using a dounce homogenizer. The solution was centrifuged at 25,000 g for 50 min at 4° C. The membrane pellet was re-suspended in binding buffer and run through a 25⅝ gauge needle. After checking the concentration by Bradford assay, the whole cell membrane solution was adjusted to 20 mg/mL and stored at −80° C.
This binding solution was centrifuged at 400 g for 5 minutes to collect the bead/membrane mixture. After re-suspending the pellet in binding buffer at the same calculated volume with 0.01% BSA (Sigma A1933), the bead/membrane mixture was added in 384-well low-binding surface plate (PerkinElmer Cat #6057480) at 25 µl/well. Radioligand at different concentrations with and without the non-radio-labeled same ligand 5 uM (for nonspecific and total signal, respectively) was added to bring final volume to 50 µl/well with DMSO concentration at 0.1%. At equilibrium (3 hours after ligand addition), radiometric signal CPM was counted by using a Microbeta2 microplate counter (Perkinelmer).
A pre-incubated bead/membrane mixture was added in compound plate at 0.3 mg beads and […] membrane per well. […] At equilibrium (3 hours after ligand addition), radiometric signal was counted as described above. The percentage inhibition of compound at each testing concentration was calculated by normalizing each condition's CPM readout to full block (5 uM non-radiolabeled ligand) and non-block (DMSO) control conditions. Compound binding inhibition IC50 was determined by nonlinear regression fitting of percentage inhibition plot against compound concentration. Compound Ki was calculated from the equation Ki=IC50/(1+[L]/Kd), which [L] was radioligand concentration used in assay. All tests had N bigger or equal to 2.

Assay [1] addresses T2, human emopamil binding protein and human 7-dehydrocholesterol reductase (hEBP-DHCR7) (Homo sapiens, UniProt Q15125).
T2 construct: expressed in transfected cells; host or cells: HEK 293 cells, transient transfection with 2 DNA constructs
Put plainly: hEBP-DHCR7 radioligand filtration binding assay. The conditions noted are these: membranes of HEK293 co-expressing hEBP and DHCR7; [3H] 2-thia-6-azaspiro[3.4]octane radioligand; 8 doses 0.06 to 5000 nM. The method, boiled down: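 Membranes from HEK293 cells transiently co-expressing human EBP and DHCR7 (10 μg/well) incubated 3 h at 22 °C with tritiated 2-thia-6-azaspiro[3.4]octane dioxide radioligand (25 nM stock addition) and compound at 0.06–5000 nM final. Bound ligand collected on PEI-treated GF/B filters, scintillation-counted. IC50 by Hill fit; reported as Ki.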

T1 sequence (Q15125 whole entry): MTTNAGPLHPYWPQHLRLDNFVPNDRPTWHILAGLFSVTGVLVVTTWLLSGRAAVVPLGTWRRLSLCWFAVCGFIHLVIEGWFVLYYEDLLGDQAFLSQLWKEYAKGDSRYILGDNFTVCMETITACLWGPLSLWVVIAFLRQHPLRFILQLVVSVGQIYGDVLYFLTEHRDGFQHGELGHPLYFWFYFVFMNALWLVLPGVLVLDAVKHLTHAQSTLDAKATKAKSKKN
T2 sequence (Q15125 whole entry): as above

As to `CC(C)n1nc(-c2cc(C(F)(F)F)ccn2)cc1[C@H]1[C@@H]2C[C@@H](N3CCC4(C3)CS(=O)(=O)C4)C[C@@H]21` (single isomer, unassigned) [Compound 20], the negative logarithm of the Ki (pKi) on human EBP was 7.21; in assay [1], 7.31.
On to `CC(C)n1nc(C(F)(F)F)cc1[C@H]1[C@@H]2C[C@H](N3CCC4(C3)CS(=O)(=O)C4)C[C@@H]21` (single isomer, unassigned) [Compound 23], for which the negative-log Ki (pKi) at human EBP was 7.89; in assay [1], 7.91.
Taken in the same sequence, the figures for `CC(C)n1nc(-c2ccnc(C(F)(F)F)c2)cc1[C@H]1[C@@H]2C[C@@H](N3CCC4(C3)CS(=O)(=O)C4)C[C@@H]21` (single isomer, unassigned) [Compound 18] were 7.52 and 7.77.
The corresponding values for `CC(C)n1nc(-c2cccc(C(F)(F)F)n2)cc1[C@H]1[C@@H]2C[C@@H](N3CCC4(CC3)CS(=O)(=O)C4)C[C@@H]21` (single isomer, unassigned) [Compound 47] are 7.72 and 6.76.
The corresponding values for `CC(C)n1nc(-c2cc(C(F)(F)F)ccn2)cc1[C@H]1[C@@H]2C[C@H](N3CCC4(C3)CS(=O)(=O)C4)C[C@@H]21` (single isomer, unassigned) [Compound 21] are 7.37 and 7.77.
For the compound `CC(C)n1nc(-c2cncc(C(F)(F)F)c2)cc1[C@H]1[C@@H]2C[C@@H](N3CC4(C3)CS(=O)(=O)C4)C[C@@H]21` (single isomer, unassigned) [Compound 98*], the results for the negative-log Ki (pKi) (on human EBP; in assay [1]) were 7.29 and 7.27, respectively.
The corresponding values for `CC(C)n1nc(-c2cncc(C(F)(F)F)c2)nc1[C@H]1[C@@H]2C[C@H](N3CCC4(C3)CS(=O)(=O)C4)C[C@@H]21` (single isomer, unassigned) [Compound 17] are 7.17 and 6.94.
The corresponding values for `CCn1nc(-c2cncc(C(F)(F)F)c2)cc1[C@H]1[C@@H]2C[C@H](N3CCC4(C3)CS(=O)(=O)C4)C[C@@H]21` (single isomer, unassigned) [Compound 25] are 7.59 and 7.84.
The corresponding values for `CC(C)n1nc(-c2cncc(C(F)(F)F)c2)cc1[C@H]1[C@@H]2C[C@H](N3CC[C@@]4(CCS(=O)(=O)C4)C3)C[C@@H]21` (single isomer, unassigned) [Compound 9*] are 7.59 and 7.70.
`CC(C)n1nc(-c2ccnc(C(F)(F)F)n2)cc1[C@H]1[C@@H]2C[C@H](N3CCC4(C3)CS(=O)(=O)C4)C[C@@H]21` [Compound 15, 6-((1R,3r,5S,6r)-6-(1-Isopropyl-3-(2-(trifluoromethyl)pyrimidin-4-yl)-1H-pyrazol-5-yl)bicyclo[3.1.0]hexan-3-yl)-2-thia-6-azaspiro[3.4]octane 2,2-dioxide]: the negative-log Ki (pKi) on human EBP is 7.72; in assay [1], 7.70.
Turning to `CC(C)n1nc(-c2cccc(C(F)(F)F)c2)cc1[C@H]1[C@@H]2C[C@@H](N3CCC4(C3)CS(=O)(=O)C4)C[C@@H]21` (single isomer, unassigned) [Compound 2], the pKi at human EBP is 7.42; in assay [1], 8.23.
`CC(C)n1nc(-c2ccnc(C(F)(F)F)c2)cc1[C@H]1[C@@H]2C[C@H](N3CCC4(C3)CS(=O)(=O)C4)C[C@@H]21` (single isomer, unassigned) [Compound 19]: the negative-log Ki (pKi) at human EBP is 7.80; in assay [1], 8.02.
The corresponding values for `CCn1nc(-c2cncc(C(F)(F)F)c2)cc1[C@H]1[C@@H]2C[C@@H](N3CCC4(C3)CS(=O)(=O)C4)C[C@@H]21` (single isomer, unassigned) [Compound 24] are 7.52 and 7.70.
As to `CC(C)n1nc(C2(C(F)(F)F)CC2)cc1[C@H]1[C@@H]2C[C@H](N3CCC4(C3)CS(=O)(=O)C4)C[C@@H]21` [Compound 32, 6-((1R,3r,5S,6r)-6-(1-Isopropyl-3-(1-(trifluoromethyl)cyclopropyl)-1H-pyrazol-5-yl)bicyclo[3.1.0]hexan-3-yl)-2-thia-6-azaspiro[3.4]octane 2,2-dioxide], the negative logarithm of the Ki (pKi) at human EBP is 7.64; in assay [1], 7.87.
The corresponding values for `CC(C)n1nc(-c2cccc(C(F)(F)F)n2)cc1[C@H]1[C@@H]2C[C@H](N3CCC4(C3)CS(=O)(=O)C4)C[C@@H]21` (single isomer, unassigned) [Compound 12] are 7.77 and 7.92.
The corresponding values for `CC(C)n1nc(-c2cccc(C(F)(F)F)n2)cc1[C@H]1[C@@H]2C[C@H](N3CCC4(CC3)CS(=O)(=O)C4)C[C@@H]21` (single isomer, unassigned) [Compound 48] are 7.82 and 7.90.
Regarding `CC(C)n1nc(-c2cncc(C(F)(F)F)c2)cc1[C@H]1[C@@H]2C[C@H](N3CCC4(CC3)CS(=O)(=O)C4)C[C@@H]21` (single isomer, unassigned) [Compound 40], the negative-log Ki (pKi) on human EBP is 7.59; in assay [1], 7.74.
Taken in the same sequence, the figures for `CC(C)n1nc(-c2cncc(C(F)(F)F)c2)cc1[C@H]1[C@@H]2C[C@@H](N3CCC4(CC3)CS(=O)(=O)C4)C[C@@H]21` (single isomer, unassigned) [Compound 38] were 7.59 and 7.39.
The corresponding values for `CC(C)n1nc(-c2ccnc(C(F)(F)F)n2)cc1[C@H]1[C@@H]2C[C@@H](N3CCC4(CC3)CS(=O)(=O)C4)C[C@@H]21` (single isomer, unassigned) [Compound 49] are 7.62 and 7.19.
Regarding `CC(C)n1nc(-c2cnc(C(F)(F)F)nc2)cc1[C@H]1[C@@H]2C[C@H](N3CCC4(C3)CS(=O)(=O)C4)C[C@@H]21` [Compound 6, 6-((1R,3r,5S,6r)-6-(1-Isopropyl-3-(2-(trifluoromethyl)pyrimidin-5-yl)-1H-pyrazol-5-yl)bicyclo[3.1.0]hexan-3-yl)-2-thia-6-azaspiro[3.4]octane 2,2-dioxide], the pKi is 7.72 on human EBP and 7.74 in assay [1].
For the compound `CC(C)n1nc(C(F)(F)F)cc1[C@H]1[C@@H]2C[C@@H](N3CCC4(C3)CS(=O)(=O)C4)C[C@@H]21` (single isomer, unassigned) [Compound 22], the pKi is 7.52 on human EBP and 7.91 in assay [1].
In the case of `CC(C)n1nc(-c2ccnc(C(F)(F)F)n2)cc1[C@H]1[C@@H]2C[C@@H](N3CCC4(C3)CS(=O)(=O)C4)C[C@@H]21` [Compound 28, 6-((1R,3s,5S,6r)-6-(1-isopropyl-3-(2-(trifluoromethyl)pyrimidin-4-yl)-1H-pyrazol-5-yl)bicyclo[3.1.0]hexan-3-yl)-2-thia-6-azaspiro[3.4]octane 2,2-dioxide], the negative-log Ki (pKi) at human EBP is 7.66; in assay [1], 7.61.
Regarding `CC(C)n1nc(-c2cccc(C(F)(F)F)n2)cc1[C@H]1[C@@H]2C[C@@H](N3CCC4(C3)CS(=O)(=O)C4)C[C@@H]21` (single isomer, unassigned) [Compound 11], the pKi at human EBP is 7.44; in assay [1] it was 7.88.
The corresponding values for `CC(C)n1nc(-c2ccc(C(F)(F)F)cc2)cc1[C@H]1[C@@H]2C[C@H](N3CCC4(C3)CS(=O)(=O)C4)C[C@@H]21` [Compound 5, 6-((1R,3r,5S,6r)-6-(1-Isopropyl-3-(4-(trifluoromethyl)phenyl)-1H-pyrazol-5-yl)bicyclo[3.1.0]hexan-3-yl)-2-thia-6-azaspiro[3.4]octane 2,2-dioxide] are 7.66 and 7.37.

What is called pKi is −log10 of the Ki, conventionally taken in molar units. Low values mean a large Ki, high ones a small Ki.
